Experimental data reported in patent US20150315153A1, “NOVEL SULFONIC ACID DERIVATIVE COMPOUND, PHOTOACID GENERATOR, CATIONIC POLYMERIZATION INITIATOR, RESIST COMPOSITION, AND CATIONICALLY POLYMERIZABLE COMPOSITION” (ADEKA CORPORATION, priority 2012, published 2015).

Tests used:
[1] = UV absorption spectrum in acetonitrile; assay type: physicochemical; details: for Maximum absorption wavelength: absorption in a range of 300 nm to 400 nm; for ε at maximum absorption wavelength (molar extinction coefficient): second line of the cell
Protocol: (§1) Compound Nos. 4, 5, 7, 10, 20, 6, 35, 38 and 40 and Comparative Compound 1 represented by the Formula below were each dissolved in acetonitrile, and their absorption spectra were measured using a […] U-3010 to determine the values of ?max and (molar extinction coefficient) for absorption in a range of 300 nm to 400 nm as well as the value of ε at 365 nm. […] As for the solubility, the concentration of each compound was increased by 1%-by-mass increments and the concentration at which no compound was left undissolved was determined and, in the results shown in Table 4, the solubility is indicated in terms of this concentration.

[2] = Solubility to propylene glycol monomethyl ether acetate at 25° C.; assay type: physicochemical; details: for Solubility: concentration at which no compound was left undissolved; for solubility, ranking among compounds grouped by sulfonate moiety: among Compound Nos. 4, 5, 7 and 10, among Compound Nos. 6, 38 and 40
Protocol: as §1

[3] = Weight loss starting point (thermal analysis); assay type: physicochemical
[4] = propylene glycol monomethyl ether acetate, 25° C.

Row | SMILES | ε at 365 nm [1] | Maximum absorption wavelength [1] | ε at maximum absorption wavelength (molar extinction coefficient) [1] | Solubility [2, 4] | solubility, ranking among compounds grouped by sulfonate moiety [2] | solubility (in words) [2, 4] | solubility, comparison between Compound Nos. 4 and 20 (different Xs) [2, 4] | Weight loss starting point [3] | melting point
1 | CC1(C)C2CCC1(CS(=O)(=O)ON1C(=O)c3cccc4cccc(c34)C1=O)C(=O)C2 (centres unmarked) [Comparative Compound 1, reference compound] | 6.48 × 10^2 | 335 nm | 1.34 × 10^4 | 2 % by mass |  |  |  |  | 
2 | CCCCc1ccc2c3c(cccc13)C(=O)N(OS(=O)(=O)C(F)(F)F)C2=O [Compound No. 4] | 1.16 × 10^4 | 346 nm | 1.65 × 10^4 | 20 % by mass | highest solubility | high solubility | higher solubility | 250 °C | 110 °C
3 | CCCCc1ccc2c3c(cccc13)C(=O)N(OS(=O)(=O)c1ccc(C)cc1)C2=O [Compound No. 6] | 1.02 × 10^4 | 343.5 nm | 1.67 × 10^4 | 2.3 % by mass | highest solubility |  |  | 314.8 °C | 145.1 °C
4 | CCCCc1ccc2c3c(cccc13)C(=O)N(OS(=O)(=O)c1c(C(C)C)cc(C(C)C)cc1C(C)C)C2=O [Compound No. 7] | 1.06 × 10^4 | 344 nm | 1.65 × 10^4 | 5 % by mass |  |  |  | 267 °C | 131 °C
5 | CCCCc1ccc2c3c(cccc13)C(=O)N(OS(=O)(=O)CC13CCC(CC1=O)C3(C)C)C2=O (centres unmarked) [Compound No. 10] | 1.17 × 10^4 | 346 nm | 1.68 × 10^4 | 5 % by mass |  |  |  | 279 °C | 134 °C
6 | CCc1ccc2c3c(cccc13)C(=O)N(OS(=O)(=O)C(F)(F)F)C2=O [Compound No. 20] | 9.95 × 10^3 | 344 nm | 1.64 × 10^4 | 5 % by mass |  |  |  | 253 °C | 145 °C

The remaining lines, values ahead:

Row | ε at 365 nm [1] | Maximum absorption wavelength [1] | ε at maximum absorption wavelength (molar extinction coefficient) [1] | Solubility [2, 4] | solubility, ranking among compounds grouped by sulfonate moiety [2] | solubility (in words) [2, 4] | solubility, comparison between Compound Nos. 4 and 20 (different Xs) [2, 4] | Weight loss starting point [3] | melting point | SMILES
7 | 1.11 × 10^4 | 345.0 nm | 1.68 × 10^4 | 2.0 % by mass |  |  |  | 302 °C | 192 °C | CCCCc1ccc2c3c(cccc13)C(=O)N(OS(=O)(=O)c1ccc(C(F)(F)F)cc1)C2=O [Compound No. 35]
8 | 1.24 × 10^4 | 345 nm | 1.76 × 10^4 | 1.6 % by mass |  |  |  | 304.9 °C | 129.6 °C | CCCCC(CC)Cc1ccc2c3c(cccc13)C(=O)N(OS(=O)(=O)c1ccc(C)cc1)C2=O (centres unmarked) [Compound No. 38]
9 | 1.05 × 10^4 | 344.5 nm | 1.68 × 10^4 | 1.9 % by mass |  |  |  | 301.8 °C | 95.5 °C | CCCCCCCCCCCCCCc1ccc2c3c(cccc13)C(=O)N(OS(=O)(=O)c1ccc(C)cc1)C2=O [Compound No. 40]
